Where “and” joins values, the source holds several entries; their conditions need not be identical. Equal entries are not always repeated.
System: U87 tumor
Test: Biodistribution ([^18F]JHU1221823), carrier / specific activity study
Assay type: in vivo, mouse
Conditions: individual mouse
Description: Biodistribution of Representative Compounds

[1] = NOD/SCID, U87 tumor, Carrier 700, 60 min post injection
[2] = Nude mice, U87 tumor, Baseline (~5000 mCi/μmol), 60 min post injection
[3] = Nude mice, U87 tumor, Carrier 350 (350 mCi/μmol), 60 min post injection
[4] = Nude mice, U87 tumor, Carrier 700, 60 min post injection
[5] = U87 tumor, Baseline, second block (stands before <NOD/SCID> heading), 60 min post injection

N#C[C@@H]1CCCN1C(=O)CNC(=O)c1ccnc2ccc(OCCCNC(=O)CCOCCOCCOCCOCCNC(=O)[C@H](CCCCNC(=O)c3ccc([18F])nc3)NC(=O)CN3CCN(CC(=O)O)CCN(CC(=O)O)CCN(CC(=O)O)CC3)cc12 [[^18F]JHU1221823]
Liver % ID/g [1]: 2.36 % ID/g | Lung % ID/g [1]: 3.66 % ID/g | Muscle % ID/g [1]: 1.99 % ID/g | Pancreas % ID/g [1]: 13.03 % ID/g | Salivary gland % ID/g [1]: 11.31 % ID/g | Small intestine % ID/g [1]: 3.48 % ID/g | Spleen % ID/g [1]: 1.46 % ID/g | Stomach % ID/g [1]: 1.64 % ID/g | Tumor % ID/g [1]: 7.79 % ID/g | Bladder % ID/g [2]: 2.02 % ID/g and 2.74 % ID/g | Blood % ID/g [2]: 10.83 % ID/g and 12.08 % ID/g | Brain % ID/g [2]: 0.22 % ID/g and 0.24 % ID/g | Fat % ID/g [2]: 1.10 % ID/g and 0.89 % ID/g | Femur % ID/g [2]: 1.98 % ID/g and 2.84 % ID/g | Heart % ID/g [2]: 5.09 % ID/g and 5.98 % ID/g | Kidney % ID/g [2]: 2.76 % ID/g and 3.06 % ID/g | Large intestine % ID/g [2]: 1.38 % ID/g and 1.42 % ID/g | Liver % ID/g [2]: 3.56 % ID/g and 3.06 % ID/g | Lung % ID/g [2]: 6.48 % ID/g and 7.46 % ID/g | Muscle % ID/g [2]: 1.44 % ID/g and 2.06 % ID/g | Pancreas % ID/g [2]: 3.42 % ID/g and 3.30 % ID/g | Salivary gland % ID/g [2]: 6.35 % ID/g and 7.47 % ID/g | Small intestine % ID/g [2]: 2.47 % ID/g and 2.93 % ID/g | Spleen % ID/g [2]: 2.17 % ID/g and 1.96 % ID/g | Stomach % ID/g [2]: 1.14 % ID/g and 1.32 % ID/g | Tumor % ID/g [2]: 2.14 % ID/g and 2.52 % ID/g | Bladder % ID/g [3]: 1.62 % ID/g and 1.85 % ID/g | Blood % ID/g [3]: 6.11 % ID/g and 4.56 % ID/g | Brain % ID/g [3]: 0.16 % ID/g and 0.12 % ID/g | Fat % ID/g [3]: 0.54 % ID/g and 1.24 % ID/g | Femur % ID/g [3]: 3.83 % ID/g and 4.47 % ID/g | Heart % ID/g [3]: 2.83 % ID/g and 2.18 % ID/g | Kidney % ID/g [3]: 2.25 % ID/g and 1.88 % ID/g | Large intestine % ID/g [3]: 1.92 % ID/g and 1.61 % ID/g | Liver % ID/g [3]: 2.06 % ID/g and 1.75 % ID/g | Lung % ID/g [3]: 3.70 % ID/g and 3.20 % ID/g | Muscle % ID/g [3]: 2.58 % ID/g and 2.23 % ID/g | Pancreas % ID/g [3]: 5.80 % ID/g and 6.78 % ID/g | Salivary gland % ID/g [3]: 10.81 % ID/g and 11.50 % ID/g | Small intestine % ID/g [3]: 2.29 % ID/g and 2.54 % ID/g | Spleen % ID/g [3]: 1.45 % ID/g and 1.12 % ID/g | Stomach % ID/g [3]: 1.60 % ID/g and 1.53 % ID/g | Tumor % ID/g [3]: 2.01 % ID/g and 2.53 % ID/g | Bladder % ID/g [4]: 2.15 % ID/g and 2.30 % ID/g | Blood % ID/g [4]: 10.55 % ID/g and 9.33 % ID/g | Brain % ID/g [4]: 0.21 % ID/g and 0.19 % ID/g | Fat % ID/g [4]: 0.41 % ID/g and 0.56 % ID/g | Femur % ID/g [4]: 2.93 % ID/g and 3.18 % ID/g | Heart % ID/g [4]: 4.92 % ID/g and 4.38 % ID/g | Kidney % ID/g [4]: 2.54 % ID/g and 2.52 % ID/g | Large intestine % ID/g [4]: 1.45 % ID/g and 1.79 % ID/g | Liver % ID/g [4]: 2.76 % ID/g and 2.85 % ID/g | Lung % ID/g [4]: 6.05 % ID/g and 5.08 % ID/g | Muscle % ID/g [4]: 2.06 % ID/g and 2.07 % ID/g | Pancreas % ID/g [4]: 3.40 % ID/g and 4.43 % ID/g | Salivary gland % ID/g [4]: 9.08 % ID/g and 7.18 % ID/g | Small intestine % ID/g [4]: 2.37 % ID/g and 1.98 % ID/g | Spleen % ID/g [4]: 1.75 % ID/g and 1.70 % ID/g | Stomach % ID/g [4]: 1.18 % ID/g and 1.57 % ID/g | Tumor % ID/g [4]: 1.81 % ID/g and 2.22 % ID/g | Bladder % ID/g [5]: 3.22 % ID/g and 10.62 % ID/g | Blood % ID/g [5]: 11.98 % ID/g and 10.01 % ID/g | Brain % ID/g [5]: 0.23 % ID/g and 0.21 % ID/g | Fat % ID/g [5]: 0.53 % ID/g and 0.71 % ID/g | Femur % ID/g [5]: 1.95 % ID/g and 2.78 % ID/g | Heart % ID/g [5]: 7.41 % ID/g and 6.48 % ID/g | Kidney % ID/g [5]: 3.14 % ID/g and 3.67 % ID/g | Large intestine % ID/g [5]: 1.66 % ID/g and 2.70 % ID/g | Liver % ID/g [5]: 4.04 % ID/g and 4.72 % ID/g | Lung % ID/g [5]: 7.27 % ID/g and 6.79 % ID/g | Muscle % ID/g [5]: 1.14 % ID/g and 2.13 % ID/g | Pancreas % ID/g [5]: 6.82 % ID/g and 9.52 % ID/g | Salivary gland % ID/g [5]: 11.69 % ID/g and 12.09 % ID/g | Small intestine % ID/g [5]: 3.79 % ID/g and 3.54 % ID/g | Spleen % ID/g [5]: 2.33 % ID/g and 1.99 % ID/g | Stomach % ID/g [5]: 1.66 % ID/g and 1.97 % ID/g | Tumor % ID/g [5]: 1.17 % ID/g and 5.00 % ID/g | Bladder % ID/g (carrier not given): 6.41 % ID/g and 2.64 % ID/g | Blood % ID/g (carrier not given): 9.28 % ID/g and 9.80 % ID/g | Brain % ID/g (carrier not given): 0.23 % ID/g and 0.22 % ID/g | Fat % ID/g (carrier not given): 0.47 % ID/g and 1.68 % ID/g | Femur % ID/g (carrier not given): 2.55 % ID/g and 3.11 % ID/g | Heart % ID/g (carrier not given): 4.31 % ID/g and 4.98 % ID/g | Kidney % ID/g (carrier not given): 2.70 % ID/g and 2.77 % ID/g | Large intestine % ID/g (carrier not given): 1.29 % ID/g and 1.69 % ID/g | Liver % ID/g (carrier not given): 2.68 % ID/g and 3.29 % ID/g | Lung % ID/g (carrier not given): 5.58 % ID/g and 5.91 % ID/g | Muscle % ID/g (carrier not given): 1.79 % ID/g and 1.78 % ID/g | Pancreas % ID/g (carrier not given): 1.62 % ID/g and 2.66 % ID/g | Salivary gland % ID/g (carrier not given): 7.44 % ID/g and 6.43 % ID/g | Small intestine % ID/g (carrier not given): 2.59 % ID/g and 3.46 % ID/g | Spleen % ID/g (carrier not given): 1.85 % ID/g and 2.43 % ID/g | Stomach % ID/g (carrier not given): 0.84 % ID/g and 1.45 % ID/g | Tumor % ID/g (carrier not given): 4.35 % ID/g and 7.0+ % ID/g
